The subject of assay [1] is CD8 T cells. The experiment in a line: In vitro mouse CD8 T cell activation with anti-CD3 (ELISA / flow cytometry). Format: cell-based. The conditions noted are these: for CD8 T cell hyperactivation (expression of CD25, Granzyme B, IL-2, IFN-γ): B6 wildtype CD8 T cells, anti-CD3, Phe 10 μM, Moc 200 μM, Clo 20 μM; for IL-2 and IFN-γ production: Maoa-WT CD8 T cells, 4-day time course post anti-CD3, treatment 10 μM vs NT. The source says:
The coating and biotinylated antibodies for the detection of mouse IFN-γ (coating antibody, cat #554424; biotinylated detection antibody, cat #554426) and IL-2 (coating antibody, cat #551216; biotinylated detection antibody, cat #554410) were purchased from BD Biosciences. The streptavidin-HRP conjugate (Cat #18410051) was purchased from Invitrogen. Mouse IFN-γ (Cat #575309) and IL-2 (Cat #575409) standards were purchased from BioLegend. The 3,3′,5,5′-Tetramethylbenzidine (TMB, cat #51200048) substrate was purchased from KPL.
Background: ELISA stands for enzyme-linked immunosorbent assay.

The test system of assay [2] is 5-HTRs on CD8 T cells. Put plainly: Western blot of 5-HTR (MAPK) and TCR signaling in CD8 T cells. The format is cell-based, mouse. The conditions noted are these: anti-CD3 2 days, asenapine 10 μM, restimulated 20 minutes. For orientation: Immunoblotting shows a protein as a band on a membrane.
Method: CD8 T cells purified from Maoa-WT and Maoa-KO mice were cultured in vitro in a 24-well plate at 0.5×10^6 cells per well for 2 days, in the presence of plate-bound anti-mouse CD3ε (5 μg/ml), with or without asenapine treatment (10 μM). Cells were then rested on ice for 2 hours and restimulated with plate-bound anti-mouse CD3ε (5 μg/ml) for 20 minutes. Total protein was extracted using a lysis buffer containing 20 mM HEPES (pH 7.6), 150 mM NaCl, 1 mM EDTA, 1% TritonX-100, and protease/phosphatase inhibitor cocktail (Cat #5872S, Cell Signaling). Nuclear protein was extracted using a Nuclear Protein Extraction Kit (Cat #P178833, Thermo Fisher Scientific). Protein concentration was measured a BCA Assay Kit (Cat #23228 and Cat #1859078, Thermo Fisher Scientific). Equal amounts of protein were resolved on a 10% SDS-PAGE gel and then transferred to a PVDF membrane by electrophoresis. MAO-A antibody was purchased from Abcam (Cat #ab126751, Clone EPR7101). […] Signals were visualized with autoradiography using an ECL system (Cat #RPN2232, Thermo Fisher Scientific). The data were analyzed using an Image Lab software (Bio-Rad).
Assay [3] concerns B16-OVA melanoma. Put plainly: Syngeneic B16-OVA melanoma tumor model, tumor growth. Format: in vivo, mouse. The conditions noted are these: for Tumor growth, B16-OVA melanoma prevention model: i.p., phenelzine 30 mg/kg/day, moclobimide 50 mg/kg/day, clorgyline 50 mg/kg/day. The procedure:
(§1) B16-OVA melanoma cells (1×10^6 per animal) or MC38 colon cancer cells (3×10^5 per animal) were subcutaneously (s.c.) injected into experimental mice to form solid tumors. In some experiments, mice received intraperitoneal (i.p.) injection of MAOIs (i.e., phenelzine, 30 mg/kg/day; moclobimide, 50 mg/kg/day; or clorgyline, 50 mg/kg/day) to block MAO-A activity. In some experiments, mice received i.p. injection of anti-mouse CD8α antibodies (200 μg/animal/bi-weekly) to deplete CD8 T cells; mice received i.p. injection of isotype antibodies were included as controls. In some experiments, mice received i.p. injection of anti-mouse PD-1 antibodies (300 μg/animal/bi-weekly) to block PD-1; mice received i.p. injection of isotype antibodies were included as controls.
(§2) During an experiment, tumor growth was monitored twice per week by measuring tumor size using a Fisherbrand™ Traceable™ digital caliper (Thermo Fisher Scientific); tumor volumes were calculated by formula ½×L×W^2. At the end of an experiment, tumor-infiltrating immune cells were isolated for analysis using QPCR, flow cytometry, and/or scRNASeq. In some experiments, sera were also collected for serotonin measurement.

The subject of assay [4] is B16-OVA melanoma. To be noted: Maoa-WT mice. The procedure:
as §1, §2
HPLC was used to measure intratumoral and serum serotonin levels as previously described (47, 48). Briefly, tumors and sera were collected from experimental mice at indicated time points, and were snap-frozen using liquid nitrogen. Frozen samples were thawed and homogenized using methanol and acetonitrile by vortexing. Homogenized samples were centrifuged, and supernatants were collected to new tubes and evaporated under a stream of argon. Dried sample pellets were then reconstituted in HPLC running buffer and were ready for analysis. Serotonin concentration was quantified using a C 18 column by reverse phase HPLC (System Gold 166P detector, Beckman Coulter)

Assay [5] has as its system MC38 colon cancer. The procedure: as §1, §2
Assay [6] has as its system tumor-infiltrating CD8 T cells. The conditions noted are these: B16-OVA, day 17, phenelzine vs NT, FACS. The procedure: as §1
For assay [7], the system named is A375-A2-ESO-FG human melanoma cells. The procedure: The A375-A2-ESO-FG human melanoma cells (10×10^6 cells per animal) were s.c. injected into NSG mice to form solid tumors. In some experiments, mice received phenelzine treatment through i.p. injection (30 mg/kg/day). In some experiments, mice received adoptive transfer of ESO-T cells through r.o. injection (4×10^6 cells per recipient mouse). Prior to ESO-T cell adoptive transfer, recipient mice were preconditioned with total body irradiation (100 rads). During an experiment, tumor growth was monitored twice per week by measuring tumor size using a Fisherbrand™ Traceable™ digital caliper; tumor volumes were calculated by formula ½×L×W^2.

For assay [8], the system named is Maoa-WT CD8 T cells. The conditions noted are these: 24-hour post anti-CD3 stimulation, phenelzine 10 μM vs NT, ELISA.
Method: Spleen and lymph node cells were harvested from Maoa-KO or Maoa-WT (B6 wildtype) mice and subjected to MACS using a Mouse CD8 T Cell Isolation Kit (Cat #120117044, Miltenyi Biotec) following the manufacturer's instructions. Purified mouse CD8 T cells were cultured in vitro in C10 medium, in a 24-well plate at 0.5×10^6 cells per ml medium per well, in the presence of plate-bound anti-mouse CD3ε (5 μg/ml) for up to 4 days. At indicated time points, cells were collected for flow cytometry analysis of surface marker expression and intracellular effector molecule production, and for QPCR analysis of mRNA expression; cell culture supernatants were collected for ELISA analysis of effector cytokine production. In experiments studying serotonin signaling, cells were cultured in C10 medium made of serotonin-depleted FBS that was pretreated overnight with charcoal-dextran (Cat #C6241, Sigma; 1 gram per 50 ml FBS). L-Ascorbic acid (Cat #A4403, Sigma; 100 μM) was added to C10 medium to stabilize T cell-produced or supplemented serotonin. […] In some experiments, cells were supplemented with exogenous serotonin (SER, 10 μM) to stimulate serotonin signaling. In some experiments, cells were treated with serotonin receptor antagonist asenapine (ASE, 10 μM) to block serotonin receptor signaling. […] The absorbance at 450 nm was measured using an Infinite M1000 microplate reader (Tecan).
The mark [9] stands for this setting: B6 wildtype mice, combination study with anti-PD-1 (Iso, Phe+Iso, αPD-1, Phe+αPD-1).

For `CN1CC2c3ccccc3Oc3ccc(Cl)cc3C2C1` (stereo not drawn) [asenapine], in assay [1] (day 2 post anti-CD3 stimulation, asenapine 10 μM, ELISA), the “IL-2 and IFN-γ production difference between Maoa-WT and Maoa-KO CD8 T cells” value was “eliminated the cytokine production difference between Maoa-WT and Maoa-KO CD8 T cells”. Moreover, the “Enhancement of MAPK signaling (ERK phosphorylation) and TCR downstream signaling (NFAT, NF-κB, c-Jun) in Maoa-KO T cells” value in assay [2] is reported as “largely abrogated”.
On to `C#CCN(C)CCCOc1ccc(Cl)cc1Cl` [clorgyline], for which the “CD8 T cell hyperactivation (expression of CD25, Granzyme B, IL-2, IFN-γ)” value (“CD8 T cell hyperactivation” below) in assay [1] is given as “efficiently induced CD8 T cell hyperactivation”. Besides, the “Tumor growth, B16-OVA melanoma prevention model” value in assay [3] (B6 wildtype mice) is “dramatically suppressed tumor growth”.
As to `O=C(NCCN1CCOCC1)c1ccc(Cl)cc1` [mocolobemide, moclobemide], the “CD8 T cell hyperactivation” value in assay [1] is given as “efficiently induced CD8 T cell hyperactivation”. For the same compound, the “Tumor growth, B16-OVA melanoma prevention model” value in assay [3] (B6 wildtype mice) is “dramatically suppressed tumor growth”.
Regarding `NNCCc1ccccc1` [phenelzine], the “CD8 T cell hyperactivation” value in assay [1] is listed as “efficiently induced CD8 T cell hyperactivation”. Besides, the “IL-2 and IFN-γ production” value in assay [1] (ELISA) was “increased production of the effector cytokines IL-2 and IFN-γ”. Further, in assay [4] (anti-CD8 antibody depletion, day 14, HPLC), the “Phenelzine treatment-induced accumulation of serotonin in the tumor after depletion of CD8 T cells” value is recorded as “largely abolished”. The Serum serotonin levels entry in assay [4] (day 14, with or without phenelzine and anti-CD8, HPLC) is recorded as “no significant changes in serotonin levels in serum”. The Intratumoral serotonin levels result in assay [4] (day 14 post tumor challenge, phenelzine vs NT, HPLC) was “increased levels of serotonin”. The B16-OVA tumor growth result in assay [3] (setting [9]) is “significantly suppressed tumor growth at a level comparable to the anti-PD-1 treatment”. Further, the “Tumor growth, B16-OVA melanoma prevention model” value in assay [3] (B6 wildtype mice) was “dramatically suppressed tumor growth”. Further, the “Tumor progression, pre-established B16-OVA melanoma solid tumors” value in assay [3] (B6 wildtype mice, phenelzine vs NT) is “effectively suppressed tumor progression”. Moreover, the “B16-OVA tumor growth in immunodeficient NSG mice” value in assay [3] (NSG mice, phenelzine vs NT) is “did not suppress the growth”. Besides, in assay [3] (tumor-bearing B6 wildtype mice, phenelzine + anti-CD8), the “Tumor suppression with CD8 T cells depleted” value is “no tumor suppression was observed”. Also, the MC38 tumor growth entry in assay [5] (setting [9]) is listed as “completely suppressed tumor growth as effectively as the anti-PD-1 treatment”. For the same compound, the “MC38 tumor growth in immunodeficient NSG mice” value in assay [5] (NSG mice, phenelzine vs NT) is listed as “did not suppress the growth”. Moreover, in assay [6], the “Expression of exhaustion markers (PD-1) on tumor-infiltrating CD8 T cells” value is “reduced expression of exhaustion markers”; the “Production of effector molecules (IFN-γ and Granzyme B) by tumor-infiltrating CD8 T cells” value is given as “enhanced production of effector molecules”. Besides, the “A375-A2-ESO-FG tumor growth without ESO-T cell adoptive transfer” value in assay [7] (NSG mice without ESO-T cells, phenelzine vs NT) is “no tumor suppression was observed”. The “A375-A2-ESO-FG tumor growth with ESO-T cell adoptive transfer” value in assay [7] (NSG mice, ESO-T cells, phenelzine i.p. 30 mg/kg/day vs NT) is on record as “effectively suppressed tumor growth”. For the same compound, in assay [8], the “Serotonin levels in CD8 T cell cultures” value was “recapitulated the serotonin overproduction phenotype of Maoa-KO CD8 T cells”.
`NCCc1c[nH]c2ccc(O)cc12` [serotonin]: in assay [1] (ELISA), the “IL-2 and IFN-γ production” value was “T cell hyperactivation and elevated production of IL-2 and IFN-γ”.

The record behind these values is patent US20230390220A1, “MONOAMINE OXIDASE BLOCKADE THERAPY FOR TREATING CANCER THROUGH REGULATING ANTITUMOR T CELL IMMUNITY” (THE REGENTS OF THE UNIVERSITY OF CALIFORNIA, priority 2020, published 2023).
